Measured values: ChEMBL document CHEMBL1201862, “PubChem BioAssay data set” (2004)
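Method: 48-hour compound exposure of cells in 96-well plates, five concentrations, linear interpolation of endpoints. At the GI50, growth is halved.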 The source made the active and inactive calls. Cut-off read from the data, not from the text of the source: active = GI50 up to about 1.1 µM and inactive = higher.

Assays:
Test in all cases: NCI tumour cell line growth inhibition, 48 h
[1] = test system: COLO 205
[2] = test system: DLD-1
[3] = test system: DMS-273
[4] = test system: HT-29
[5] = test system: KM12
[6] = test system: LXFL 529
[7] = test system: Malme-3M
[8] = test system: OVCAR-4
[9] = test system: OVCAR-8
[10] = test system: RPMI-8226
[11] = test system: SK-MEL-5
[12] = test system: SNB-78
[13] = test system: TK-10
[14] = test system: XF498
[15] = test system: HCT-116

Measured: GI50

Cc1cc(C)c(C2=NO[C@@H]3C(=O)N(c4ccc(Cc5ccc(N6C(=O)[C@H]7C(c8c(C)cc(C)cc8C)=NO[C@H]7C6=O)cc5)cc4)C(=O)[C@H]23)c(C)c1
inactive: [1] > 100 µM | [2] > 100 µM | [3] > 100 µM | [4] > 100 µM | [5] > 100 µM | [6] > 100 µM | [7] > 100 µM | [8] > 100 µM | [9] > 100 µM | [10] > 100 µM | [11] > 100 µM | [12] > 100 µM | [13] > 100 µM | [14] > 100 µM

CCOP(=O)(OCC)C1C(=O)O[C@H]2CCCC[C@@H]12 (stereo partly drawn)
inactive: [1] > 100 µM | [2] > 100 µM | [3] > 100 µM | [15] > 100 µM | [4] > 100 µM | [5] > 100 µM | [6] > 100 µM | [7] > 100 µM | [8] > 100 µM | [9] > 100 µM | [10] > 100 µM | [11] > 100 µM | [12] > 100 µM | [13] > 100 µM | [14] > 100 µM

Cc1cc(C)n(-c2c(O)ccc(O)c2-n2nc(C)cc2C)n1
inactive: [1] > 100 µM | [2] > 100 µM | [3] > 100 µM | [4] > 100 µM | [5] > 100 µM | [6] > 100 µM | [7] > 100 µM | [8] > 100 µM | [9] > 100 µM | [10] > 100 µM | [11] > 100 µM | [12] > 100 µM | [13] > 100 µM | [14] > 100 µM

CSc1cc(-c2cc3ccccc3o2)oc(=O)c1C#N
inactive: [1] > 100 µM | [2] > 100 µM | [3] > 100 µM | [15] > 100 µM | [4] > 100 µM | [5] > 100 µM | [6] > 100 µM | [7] 3.6 µM | [8] > 100 µM | [9] > 100 µM | [10] 27.7 µM | [11] > 100 µM | [12] 88.1 µM | [13] 21.8 µM | [14] 5.83 µM

C=C1C[C@@H]2C[C@@H](C)CC(O)[C@]2(CCCN)C1O (stereo partly drawn)
inactive: [1] > 100 µM | [2] > 100 µM | [3] > 100 µM | [15] > 100 µM | [4] > 100 µM | [5] > 100 µM | [6] > 100 µM | [7] > 100 µM | [8] > 100 µM | [9] > 100 µM | [10] > 100 µM | [11] > 100 µM | [12] > 100 µM | [13] > 100 µM | [14] > 100 µM
